# Data: patent US11857635B2, “Linker compound, polyethylene glycol-linker conjugate and derivative thereof and polyethylene glycol-linker-drug conjugate” (JENKEM TECHNOLOGY CO., LTD. (TIANJIN), priority 2017, dated 2024)
# System: HCT116 tumor
# Test: Tumor growth inhibition in HCT116 tumor heterotopic transplantation mouse model
# Type: in vivo
# Conditions: HCT116 subcutaneous tumor in mice, FIG. 6
# Description: The experiment was carried out to detect a tumor growth inhibition effect of a drug on the HCT116 tumor heterotopic transplantation mouse model.
# G2: positive drug adriamycin (commercially available); and
# G3: 4arm PEG-L5-Dox (prepared in Example 22).
# An original culture solution was removed by suction after HCT116 cells (commercially available) were received, and 10 mL of fresh culture solution was added. The cells were collected and passaged when 90% of the cells were converged. After the culture solution was removed, 10 ml of EDTA/PBS solution was added and placed at room temperature for 5 minutes, and then the EDTA/PBS solution was removed by suction. […] The cells was counted with a counting plate and diluted with DMEM containing 10% FBS. […]
# The cell suspension was changed in advance when it was detected that 80% of the cells were converged on the inoculation day of the cells. […] The cells were counted with a counting plate and diluted with PBS to a concentration of 2*10^7 cells/mL, and then the cells were placed on ice until inoculation.
# HCT116 cells were subcutaneously inoculated in a right front axilla of a mouse. […] Tumor volumes were measured twice a week after inoculation, and when an average tumor volume reached 100 to 200 mm^3, 18 mice with similar tumor sizes were selected and randomly divided into 3 groups with 6 mice in each group. […]
compound,measurement,value
COc1cccc2c1C(=O)c1c(O)c3c(c(O)c1C2=O)C[C@@](O)(C(=O)CO)C[C@@H]3O[C@H]1C[C@H](N)[C@H](O)[C@H](C)O1 [adriamycin],Anti-tumor effect,obvious anti-tumor effects
